Reference: ChEMBL document CHEMBL5252642, “Design and synthesis of naturally-inspired SARS-CoV-2 inhibitors” (RSC Med Chem, 2023)
Active and inactive are the calls of the source. The rule behind the calls is not given here.

tested on: SARS-CoV-2; assay: Antiviral activity against SARS-CoV-2 Omicron BA1 variant infected human A549-ACE2 cells assessed as inhibition of viral replication; type: functional, organism-based; settings: Severe acute respiratory syndrome coronavirus 2, Omicron BA1, A549-ACE2

Row | Structure (SMILES) | EC50 [µM]
1 | COc1cc(CN2C[C@H]3O[C@]4(C2)CN(S(=O)(=O)c2ccc(C)cc2)[C@]2(C(C)C)CC[C@H](OCCCN(C)C)[C@H]3[C@H]42)cc(OC)c1 | 4.4
2 | COc1ccc(CCN2C[C@H]3O[C@]4(C2)CN(S(=O)(=O)c2ccc(C)cc2)[C@]2(C(C)C)C=C[C@H](O)[C@H]3[C@H]42)cc1 | 3.5

tested on: Severe acute respiratory syndrome coronavirus 2; assay: Inhibition of SARS-CoV2 main protease C145A mutant by measuring luciferase signal at 0.02 to 125 uM by reverse-nanoluciferase reporter assay; settings: dose 0.02-125 µM

Row | Structure (SMILES) | inhibition
3 | COc1ccc(CCN2C[C@H]3O[C@]4(C2)CN(S(=O)(=O)c2ccc(C)cc2)[C@]2(C(C)C)C=C[C@H](O)[C@H]3[C@H]42)cc1 | inactive
4 | CC(C)C[C@H](NC(=O)OCc1ccccc1)C(=O)N[C@@H](C[C@@H]1CCNC1=O)C(O)S(=O)(=O)O (stereo partly drawn) | inactive

tested on: not listed separately; assay: Selectivity index, ratio of CC50 for human A549-ACE2 cells to EC50 for antiviral activity against SARS-CoV-2 Omicron BA1 variant infected human A549-ACE2 cells; type: toxicity; settings: read-out: Ratio CC50/EC50

Row | Structure (SMILES) | selectivity ratio
5 | COc1ccc(CCN2C[C@H]3O[C@]4(C2)CN(S(=O)(=O)c2ccc(C)cc2)[C@]2(C(C)C)C=CC(=O)[C@H]3[C@H]42)cc1 | 0.5
6 | COc1cc(CN2C[C@H]3O[C@]4(C2)CN(S(=O)(=O)c2ccc(C)cc2)[C@]2(C(C)C)CC[C@H](OCCCN(C)C)[C@H]3[C@H]42)cc(OC)c1 | 5.7
7 | Cc1ccc(S(=O)(=O)N2C[C@@]34CN(Cc5ccccc5)C[C@@H](O3)[C@@H]3[C@H]4[C@@]2(C(C)C)C=C[C@@H]3O)cc1 | > 3
8 | Cc1ccc(S(=O)(=O)N2C[C@@]34CN(C(=O)c5ccc(F)cc5N)C[C@@H](O3)[C@@H]3[C@H]4[C@@]2(C(C)C)CC[C@@H]3O)cc1 | 1.4
9 | Cc1ccc(S(=O)(=O)N2C[C@@]34CN(Cc5nc6ccccc6s5)C[C@@H](O3)[C@H]3C(=O)CC[C@]2(C(C)C)[C@H]34)cc1 | 6.9
10 | COc1cc(CN2C[C@H]3O[C@]4(C2)CN(S(=O)(=O)c2ccc(C)cc2)[C@]2(C(C)C)CC[C@H](O)[C@H]3[C@H]42)cc(OC)c1 | 2.3
11 | Cc1ccc(S(=O)(=O)N2C[C@@]34CN(CCc5c[nH]c6ccccc56)C[C@@H](O3)[C@@H]3[C@H]4[C@@]2(C(C)C)CC[C@@H]3O)cc1 | 1.6
12 | Cc1ccc(S(=O)(=O)N2C[C@@]34CN(C(=O)c5cccs5)C[C@@H](O3)[C@@H]3[C@H]4[C@@]2(C(C)C)CC[C@@H]3O)cc1 | > 3
13 | Cc1ccc(S(=O)(=O)N2C[C@@]34CN(Cc5ccccc5)C[C@@H](O3)[C@H]3[C@@H](Oc5ncccn5)CC[C@]2(C(C)C)[C@H]34)cc1 | 1
14 | Cc1ccc(S(=O)(=O)N2C[C@@]34CN(Cc5nc6ccccc6s5)C[C@@H](O3)[C@@H]3[C@H]4[C@@]2(C(C)C)CC[C@@H]3O)cc1 | 1.6
15 | Cc1ccc(S(=O)(=O)N2C[C@@]34CN(Cc5ccccc5)C[C@@H](O3)[C@H]3C(=O)CC[C@]2(C(C)C)[C@H]34)cc1 | 0.7
16 | Cc1ccc(S(=O)(=O)N2C[C@@]34CN(C)C[C@@H](O3)[C@H]3[C@@H](Oc5ncccn5)CC[C@]2(C(C)C)[C@H]34)cc1 | 0.8
17 | Cc1ccc(S(=O)(=O)N2C[C@@]34CN(Cc5ccccc5)C[C@@H](O3)[C@H]3C(=O)C=C[C@]2(C(C)C)[C@H]34)cc1 | 0.9
18 | COc1ccc(CCN2C[C@H]3O[C@]4(C2)CN(S(=O)(=O)c2ccc(C)cc2)[C@]2(C(C)C)C=C[C@H](O)[C@H]3[C@H]42)cc1 | 3.3
